Assay results reported in patent US6573218B1, “Fused-benzene derivatives useful as herbicides” (Ishihara Sangyo Kaisha, Ltd., priority 1998, dated 2003).

Tests used:
Type in all cases: in vivo
[1] = tested on: field corn (Zea mays L., var. Dekalb 527, CORN); assay: Post-emerge greenhouse crop damage test
Outline: (§1)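 Compounds in acetone were track-sprayed at 187 l/ha, 15–1000 g ai/ha, onto potted plants in sandy loam. Pre-emerge: seeds sown one day before spraying, soil watered in afterwards; post-emerge: plants at about the 2–3 leaf stage, with 0.25% v/v non-ionic surfactant. Injury rated 0 (none) to 100 (all plants dead) at 14 days.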

[2] = tested on: soybean (Glycine max L., var. Pella 86, SOY); assay: Post-emerge greenhouse crop damage test
Outline: as §1

[3] = tested on: upland rice (Ory0a sp., var.Tebonnet, RICE); assay: Post-emerge greenhouse crop damage test
Outline: as §1

[4] = tested on: common ragweed (Ambrosia artemisiifolia L., AMBEL); assay: Post-emerge greenhouse herbicide test; conditions: 250 g ai/ha, 14 days after application
Outline: as §1

[5] = tested on: redroot pigweed (Amaranthus retroflexus, AMARE); assay: Post-emerge greenhouse herbicide test; conditions: 250 g ai/ha, 14 days after application
Outline: as §1

[6] = tested on: lambsquarters (Chenopodium album, CHEAL); assay: Post-emerge greenhouse herbicide test; conditions: 250 g ai/ha, 14 days after application
Outline: as §1

[7] = tested on: barnyardgrass (Echinochloa crus-galli, ECHCG); assay: Post-emerge greenhouse herbicide test; conditions: 250 g ai/ha, 14 days after application
Outline: as §1

[8] = tested on: velvetleaf (Abutilon theophrasti, ABUTH); assay: Post-emerge greenhouse herbicide test; conditions: 250 g ai/ha, 14 days after application
Outline: as §1

[9] = tested on: ivyleaf morningglory (Ipomoea hederacea, IPOHE); assay: Post-emerge greenhouse herbicide test; conditions: 250 g ai/ha, 14 days after application
Outline: as §1

[10] = tested on: large crabgrass (Digitaria sanguinalis, DIGSA); assay: Post-emerge greenhouse herbicide test; conditions: 250 g ai/ha, 14 days after application
Outline: as §1

[11] = tested on: green foxtail (Setaria viridis, SETVI); assay: Post-emerge greenhouse herbicide test; conditions: 250 g ai/ha, 14 days after application
Outline: as §1

[12] = tested on: johnsongrass (Sorghum halepense, SORHA); assay: Post-emerge greenhouse herbicide test; conditions: 250 g ai/ha, 14 days after application
Outline: as §1

[13] = tested on: sicklepod (Cassia obtusifolia, CASOB); assay: Post-emerge greenhouse herbicide test; conditions: 250 g ai/ha, 14 days after application
Outline: as §1

[14] = tested on: field corn (Zea mays L., var. Dekalb 527, CORN); assay: Pre-emerge greenhouse crop damage test
Outline: as §1

[15] = tested on: soybean (Glycine max L., var. Pella 86, SOY); assay: Pre-emerge greenhouse crop damage test
Outline: as §1

[16] = tested on: upland rice (Ory0a sp., var.Tebonnet, RICE); assay: Pre-emerge greenhouse crop damage test; conditions: in vivo
Outline: as §1

[17] = tested on: redroot pigweed (Amaranthus retroflexus, AMARE); assay: Pre-emerge greenhouse herbicide test; conditions: 250 g ai/ha, 14 days after application, scale 0-100 (0 no damage, 100 complete death)
Outline: as §1

[18] = tested on: lambsquarters (Chenopodium album, CHEAL); assay: Pre-emerge greenhouse herbicide test; conditions: 250 g ai/ha, 14 days after application, scale 0-100 (0 no damage, 100 complete death)
Outline: as §1

[19] = tested on: barnyardgrass (Echinochloa crus-galli, ECHCG); assay: Pre-emerge greenhouse herbicide test; conditions: 250 g ai/ha, 14 days after application, scale 0-100 (0 no damage, 100 complete death)
Outline: as §1

[20] = tested on: velvetleaf (Abutilon theophrasti, ABUTH); assay: Pre-emerge greenhouse herbicide test; conditions: 250 g ai/ha, 14 days after application, scale 0-100 (0 no damage, 100 complete death)
Outline: as §1

[21] = tested on: ivyleaf morningglory (Ipomoea hederacea, IPOHE); assay: Pre-emerge greenhouse herbicide test; conditions: 250 g ai/ha, 14 days after application, scale 0-100 (0 no damage, 100 complete death)
Outline: as §1

[22] = tested on: large crabgrass (Digitaria sanguinalis, DIGSA); assay: Pre-emerge greenhouse herbicide test; conditions: 250 g ai/ha, 14 days after application, scale 0-100 (0 no damage, 100 complete death)
Outline: as §1

[23] = tested on: green foxtail (Setaria viridis, SETVI); assay: Pre-emerge greenhouse herbicide test; conditions: 250 g ai/ha, 14 days after application, scale 0-100 (0 no damage, 100 complete death)
Outline: as §1

[24] = tested on: johnsongrass (Sorghum halepense, SORHA); assay: Pre-emerge greenhouse herbicide test; conditions: 250 g ai/ha, 14 days after application, scale 0-100 (0 no damage, 100 complete death)
Outline: as §1

[25] = tested on: sicklepod (Cassia obtusifolia, CASOB); assay: Pre-emerge greenhouse herbicide test; conditions: 250 g ai/ha, 14 days after application, scale 0-100 (0 no damage, 100 complete death)
Outline: as §1

[26] = 250 g ai/ha, post-emerge, 14 days after application
[27] = pre-emerge, 250 g ai/ha, 14 days after application, scale 0-100 (0 no damage, 100 complete death)
[28] = var. Dekalb 527, field corn (Zea mays L.), in vivo, 14 days
[29] = var. Pella 86, soybean (Glycine max L.), in vivo, 14 days

| Compound | Post-emerge Herbicidal Activity AMBEL (phytotoxicity rating 0-100) [4] | Post-emerge Herbicidal Activity AMARE (phytotoxicity rating 0-100) [5] | Post-emerge Herbicidal Activity CHEAL (phytotoxicity rating 0-100) [6] | Post-emerge Herbicidal Activity ECHCG (phytotoxicity rating 0-100) [7] | Post-emerge Herbicidal Activity ABUTH (phytotoxicity rating 0-100) [8] | Post-emerge Herbicidal Activity IPOHE (phytotoxicity rating 0-100) [9] | Post-emerge Herbicidal Activity DIGSA (phytotoxicity rating 0-100) [10] | Post-emerge Herbicidal Activity SETVI (phytotoxicity rating 0-100) [11] | Post-emerge Herbicidal Activity SORHA (phytotoxicity rating 0-100) [12] | Post-emerge Herbicidal Activity CASOB (phytotoxicity rating 0-100) [13] | Pre-emerge Herbicidal Activity AMARE (phytotoxicity rating) [17] | Pre-emerge Herbicidal Activity CHEAL (phytotoxicity rating) [18] | Pre-emerge Herbicidal Activity ECHCG (phytotoxicity rating) [19] | Pre-emerge Herbicidal Activity ABUTH (phytotoxicity rating) [20] | Pre-emerge Herbicidal Activity IPOHE (phytotoxicity rating) [21] | Pre-emerge Herbicidal Activity DIGSA (phytotoxicity rating) [22] | Pre-emerge Herbicidal Activity SETVI (phytotoxicity rating) [23] | Pre-emerge Herbicidal Activity SORHA (phytotoxicity rating) [24] | Pre-emerge Herbicidal Activity CASOB (phytotoxicity rating) [25] | further results |
| --- | --- | --- | --- | --- | --- | --- | --- | --- | --- | --- | --- | --- | --- | --- | --- | --- | --- | --- | --- | --- |
| CC1Oc2c(Cl)cc(F)c(-c3nn(C)c(OC(F)F)c3Cl)c2NC1=O (centres unmarked) [Compound 10-8, 4-Chloro-3-(8-chloro-6-fluoro-2-methyl-2H-1,4-benzoxazine-3-one-5-yl)-5-difluoromethoxy-1-methyl-i H-pyrazole] | 95 | 100 | 100 | 100 | 100 | 100 | 65 | 100 | 55 | 100 | 100 | 100 | 100 | 100 | 99 | 100 | 100 | 99 | 95 | Post-emerge crop damage CORN (phytotoxicity rating 0-100) [1, 26]: 25; Post-emerge crop damage SOY (phytotoxicity rating 0-100) [2, 26]: 100; Post-emerge crop damage RICE (phytotoxicity rating 0-100) [3, 26]: 90; Pre-emerge Herbicidal Activity CORN (crop damage rating) [14, 27]: 0; Pre-emerge Herbicidal Activity SOY (crop damage rating) [15, 27]: 15; Pre-emerge Herbicidal Activity RICE (crop damage rating) [16]: 40 |
| Cc1nc2c(-n3c(=O)cc(C(F)(F)F)n(C)c3=O)c(F)cc(Cl)c2oc1=O [Compound 3-1, 3-(8-Chloro-6-fluoro-3-methyl-2H-1,4-benzoxazin-2-one-5-yl)-1-methyl-6-trifluoromethyl-2,4(1H,3H)-pyrimidindione] | 20 | 70 | 60 | 0 | 95 | 50 | 0 | 0 | 0 | 0 | 60 | 100 | 0 | 100 | 0 | 0 | 20 | 0 | 0 | Post-emerge crop damage CORN (phytotoxicity rating 0-100) [1, 28]: 0; Post-emerge crop damage SOY (phytotoxicity rating 0-100) [2, 29]: 30; Post-emerge crop damage RICE (phytotoxicity rating 0-100) ([3]; var. Tebonnet, upland rice (Ory0a sp.), in vivo, 14 days): 0; Pre-emerge Herbicidal Activity CORN (crop damage rating) [14, 28]: 0; Pre-emerge Herbicidal Activity SOY (crop damage rating) [15, 29]: 0; Pre-emerge Herbicidal Activity RICE (crop damage rating) ([16]; var. Tebonnet, upland rice (Ory0a sp.), 14 days): 0 |
